The values that follow come from ChEMBL document CHEMBL1149227, “The discovery of structurally novel CCR1 antagonists derived from a hydroxyethylene peptide isostere template” (Bioorg Med Chem Lett, 2004).

Experiment [1] concerns the target T1, C-C chemokine receptor type 1 (Homo sapiens, UniProt P32246).
T1 sequence (P32246 whole entry): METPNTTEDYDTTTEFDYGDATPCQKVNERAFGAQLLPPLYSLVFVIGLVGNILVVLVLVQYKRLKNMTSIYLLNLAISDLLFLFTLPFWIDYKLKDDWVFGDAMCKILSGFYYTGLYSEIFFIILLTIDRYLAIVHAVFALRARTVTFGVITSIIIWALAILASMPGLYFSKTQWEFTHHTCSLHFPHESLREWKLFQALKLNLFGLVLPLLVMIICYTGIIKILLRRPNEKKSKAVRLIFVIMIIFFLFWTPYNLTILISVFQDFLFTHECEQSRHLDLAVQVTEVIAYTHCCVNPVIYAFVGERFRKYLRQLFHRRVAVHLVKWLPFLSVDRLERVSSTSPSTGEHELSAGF
The experiment is described as follows: Inhibition of CCL3 binding to C-C chemokine receptor type 1.

The test system of experiment [2] is THP-1. The experiment is described as follows: (§1) Inhibition of CCL3 induced chemotaxis in THP-1 cells; inactive at a concentration of 25 uM. Type of experiment: functional, cell-based. As to conditions: Homo sapiens.
In experiment [3] the test system is THP-1. The experiment is described as follows: Inhibition of CCL3 induced chemotaxis in THP-1 cells. It counts as functional, cell-based. As to conditions: Homo sapiens.
The target in experiment [4] is T2, Renin (Rattus norvegicus, UniProt P08424).
T2 sequence (P08424 whole entry): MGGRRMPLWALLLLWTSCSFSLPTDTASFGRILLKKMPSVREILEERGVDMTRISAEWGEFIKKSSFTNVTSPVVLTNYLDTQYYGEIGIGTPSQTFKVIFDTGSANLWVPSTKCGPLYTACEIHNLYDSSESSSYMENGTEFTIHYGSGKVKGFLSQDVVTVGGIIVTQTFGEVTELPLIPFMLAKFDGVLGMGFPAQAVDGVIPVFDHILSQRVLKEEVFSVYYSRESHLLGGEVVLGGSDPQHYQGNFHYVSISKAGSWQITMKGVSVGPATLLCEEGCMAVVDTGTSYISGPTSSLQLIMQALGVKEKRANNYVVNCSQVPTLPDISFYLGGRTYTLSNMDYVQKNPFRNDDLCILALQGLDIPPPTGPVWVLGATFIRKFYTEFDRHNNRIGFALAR
The experiment is described as follows: Inhibitory activity of compound against renin was determined.

Experiment [5] has as its system THP-1. In words: Inhibition of CCL5 induced chemotaxis in THP-1 cells. Type of experiment: functional, cell-based. Conditions: Homo sapiens.
For experiment [6], the system named is THP-1. The experiment is described as §1. It counts as functional. As to conditions: Homo sapiens.

On to `CNC(=O)[C@H](CC(C)C)C[C@H](O)[C@H](Cc1ccccc1)NC(=O)c1cnc2ccccc2c1`, for which the 50% inhibitory concentration (IC50) – broadly, the concentration needed to halve the response being measured – in experiment [1] was 0.65 µM. This lies in the sub-micromolar range.

Consider `CNC(=O)[C@H](CC(C)C)C[C@@H](O)[C@@H](CC1CCCCC1)NC(=O)c1cnc2ccccc2c1`, for which, in experiment [2], the half-inhibitory concentration (IC50) is < 50 µM.

For the compound `CC[C@H](C)[C@H](NC(=O)c1cnc2ccccc2c1)[C@@H](O)C[C@@H](CC(C)C)C(=O)NC`, the concentration for half-maximal inhibition (IC50) in experiment [2] was < 50 µM.

For the compound `CNC(=O)[C@@H](CC(C)C)C[C@H](O)[C@H](CC1CCCCC1)NC(=O)c1cnc2ccccc2c1`, the values for the 50% inhibitory concentration (IC50) in experiment [3] and in experiment [1] were 12 µM and 30 µM, respectively.

On to `CNC(=O)[C@@H](CC(C)C)C[C@H](O)[C@@H](CC1CCCCC1)NC(=O)c1cnc2ccccc2c1`, for which the IC50 in experiment [2] is < 50 µM.

With `CNC(=O)[C@H](CC(C)C)C[C@H](O)[C@H](CC1CCCCC1)NC(=O)c1cnc2ccccc2c1`, the concentration for half-maximal inhibition (IC50) was > 10000 nM in experiment [4], 2.3 µM in experiment [1] and 630 nM in experiment [5].

Take `C=C(Cl)C[C@H](C[C@H](O)[C@H](CC1CCCCC1)NC(=O)c1cc2cc(Cl)ccc2[nH]1)C(=O)NC`: the IC50 was 41 nM in experiment [4], > 32 µM in experiment [1] and > 25000 nM in experiment [5].

Turning to `CC(C)C[C@H](C[C@H](O)[C@H](CC1CCCCC1)NC(=O)c1cnc2ccccc2c1)C(N)=O`, the IC50 in experiment [3] was determined as 6.3 µM; in experiment [1], 8 µM.

On to `CNC(=O)[C@@H](CC(C)C)C[C@@H](O)[C@H](CC1CCCCC1)NC(=O)c1cnc2ccccc2c1`, for which it took 7.7 µM to reach half-maximal inhibition in experiment [3] (IC50).

`CC(C)C[C@H](C[C@H](O)[C@H](CC1CCCCC1)NC(=O)c1cnc2ccccc2c1)C(=O)N(C)C`: the concentration for half-maximal inhibition (IC50) in experiment [2] is < 50 µM.

Consider `CNC(=O)[C@H](CC(C)C)C[C@H](O)[C@H](CC(C)C)NC(=O)c1cnc2ccccc2c1`, for which the IC50 in experiment [1] is 11.8 µM. This counts as double-digit micromolar.

With `CNC(=O)[C@H](CC(C)C)C[C@H](O)[C@H](CC1CCCCC1)NS(=O)(=O)c1cnc2ccccc2c1`, the IC50 in experiment [2] is < 50 µM.

Consider `CNC(=O)[C@H](CC(C)C)C[C@H](O)[C@@H](CC1CCCCC1)NC(=O)c1cnc2ccccc2c1`, for which, in experiment [6], the inhibition (in general, the relative decrease from the control value, in per cent) at 25 µM was < 50%.

Take `CNC(=O)[C@@H](CC(C)C)C[C@@H](O)[C@@H](CC1CCCCC1)NC(=O)c1cnc2ccccc2c1`: the IC50 in experiment [1] was 15 µM; in experiment [2], < 50 µM.

With `CNC(=O)[C@H](CC(C)C)C[C@@H](O)[C@H](CC1CCCCC1)NC(=O)c1cnc2ccccc2c1`, the half-inhibitory concentration (IC50) in experiment [2] was > 25 µM.
